This note sets out measurements from patent publication US20260224563A1, “CRYSTALLINE FORMS OF 6-(3-((5-CHLORO-2-METHOXYPYRIDINE)-3-SULFONAMIDO)-2,6-DIFLUOROPHENYL)-N-METHYLIMIDAZO[1,5-A]PYRAZINE-1-CARBOXAMIDE AND METHODS FOR USING THE SAME” (HIBERCELL, INC., priority 2023, published 2026).

The nature of the data set: Pharmacokinetics of HC-7366 in male and female beagle dogs following IV and oral administration of HC-7366-K (plasma and urine, LC-MS/MS). It counts as in vivo, Beagle Dog. Details: AUC(0-t)/D: unit not given here.

In the case of `CNC(=O)c1ncn2cc(-c3c(F)ccc(NS(=O)(=O)c4cc(Cl)cnc4OC)c3F)ncc12` [HC-7366-K, 6-(3-((5-chloro-2-methoxypyridine)-3-sulfonamido)-2,6-difluorophenyl)-N-methylimidazo[1,5-a]pyrazine-1-carboxamide], where the note is “Female Beagle dog, IV 0.5 mg/kg, mean n = 3”, the “AUC(0-t)/D” value was 162284. In addition, the t1/2 (Male Beagle dogs, IV 0.5 mg/kg, HC-7366 in plasma, mean n = 3) is listed as 14 h. Moreover, under “dog, plasma, male beagle dogs, intravenous 0.5 mg/kg, read-out: Clearance (CL)”, the clearance came out at 6 mL/h/kg. Besides, the Vd (dog, plasma, male beagle dogs, intravenous 0.5 mg/kg, read-out: volume of distribution at steady state (Vss)) was 0.107 L/kg. Besides, the CL renal (dog, urine and plasma, female Beagle dogs, intravenous 0.5 mg/kg, read-out: Renal Clearance) came out at 0.0066 mL/h/kg.
